Laboratory results: patent publication US11712438B2, “Phenyl derivatives as PGE2 receptor modulators” (IDORSIA PHARMACEUTICALS LTD, priority 2017, dated 2023)

Key:
Test in all cases: cell-based
[1] = target: PTGER2 (EP2) (Homo sapiens, UniProt P43116)
[2] = target: PTRGER4 (EP4) (Homo sapiens, UniProt P35408);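 note: assay plate preincubated 15 min at 37 °C, after which PGE2 was added at 20 nM final and incubation continued 120 min at 37 °C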
[3] = target: EP2 (Homo sapiens, UniProt P43116);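 note: SF295 glioblastoma cells with endogenous EP2 only, PGE2-stimulated cAMP accumulation read by HTRF competitive immunoassay, 45 min pre-incubation then 30 min at room temperature, IBMX in buffer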
[4] = target: EP4 (Homo sapiens, UniProt P35408);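 note: inhibition of PGE2-evoked (6 nM) cAMP accumulation in BT549 breast cancer cells endogenously expressing EP4, cAMP read by HTRF competitive immunoassay after 30 min at room temperature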
Sequence of EP4 (P35408 whole entry): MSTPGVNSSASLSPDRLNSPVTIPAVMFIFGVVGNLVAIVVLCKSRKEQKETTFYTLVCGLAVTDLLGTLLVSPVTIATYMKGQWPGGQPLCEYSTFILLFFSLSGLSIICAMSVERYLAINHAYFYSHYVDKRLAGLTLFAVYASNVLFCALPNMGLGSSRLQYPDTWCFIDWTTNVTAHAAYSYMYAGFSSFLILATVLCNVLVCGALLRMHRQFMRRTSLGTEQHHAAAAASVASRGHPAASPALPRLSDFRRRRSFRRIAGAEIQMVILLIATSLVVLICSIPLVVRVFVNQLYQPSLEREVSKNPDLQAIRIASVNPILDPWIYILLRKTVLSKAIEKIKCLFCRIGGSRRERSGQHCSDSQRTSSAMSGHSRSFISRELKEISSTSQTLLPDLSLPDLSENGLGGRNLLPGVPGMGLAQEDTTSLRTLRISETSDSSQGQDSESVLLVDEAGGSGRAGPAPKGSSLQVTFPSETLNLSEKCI

Sequence of PTRGER4 (EP4) (P35408 whole entry): as above
Sequence of PTGER2 (EP2) (P43116 whole entry): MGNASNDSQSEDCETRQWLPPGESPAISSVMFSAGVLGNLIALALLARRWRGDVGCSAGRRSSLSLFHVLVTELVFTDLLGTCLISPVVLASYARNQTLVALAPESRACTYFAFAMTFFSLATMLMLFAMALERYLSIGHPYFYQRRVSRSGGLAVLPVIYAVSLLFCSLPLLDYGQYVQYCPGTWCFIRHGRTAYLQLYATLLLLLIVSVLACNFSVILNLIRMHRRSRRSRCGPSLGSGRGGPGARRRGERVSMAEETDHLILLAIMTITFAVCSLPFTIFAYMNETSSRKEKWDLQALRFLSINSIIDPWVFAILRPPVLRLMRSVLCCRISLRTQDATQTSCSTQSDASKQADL
Sequence of EP2 (P43116 whole entry): as above

| IC50 [1] | IC50 [2] | IC50 [3] | IC50 [4] | Structure (SMILES) |
| --- | --- | --- | --- | --- |
| 51 nM | 8 nM | 41 nM | 6 nM | CCOc1cc(-c2cc(NCCc3cc(F)c(C(F)F)cc3OC)ncn2)sc1C(=O)O [Example 185, 5-{6-[2-(4-Difluoromethyl-5-fluoro-2-methoxy-phenyl)-ethylamino]-pyrimidin-4-yl}-3-ethoxy-thiophene-2-carboxylic acid] |
| 130 nM | 216 nM | 260 nM | 200 nM | COc1cc(C(F)F)c(F)cc1CCNc1cc(-c2ccc(C(=O)O)c(SC)c2)ncn1 [Example 187, 4-{6-[2-(4-Difluoromethyl-5-fluoro-2-methoxy-phenyl)-ethylamino]-pyrimidin-4-yl}-2-methylsulfanyl-benzoic acid] |
| 235 nM | 113 nM | 400 nM | 107 nM | COc1cc(C(F)(F)F)c(Cl)cc1CCNc1cc(-c2ccc(C(=O)O)c(SC)c2)ncn1 [Example 196, 4-{6-[2-(5-Chloro-2-methoxy-4-trifluoromethyl-phenyl)-ethylamino]-pyrimidin-4-yl}-2-methylsulfanyl-benzoic acid] |
| 81 nM | 92 nM | 27 nM | 11 nM | CCOc1cc(-c2cc(NCCc3c(C)cc(C)cc3OC)ncn2)sc1C(=O)O [Example 203, 3-Ethoxy-5-{6-[2-(2-methoxy-4,6-dimethyl-phenyl)-ethylamino]-pyrimidin-4-yl}-thiophene-2-carboxylic acid] |
| 294 nM | 20 nM | 615 nM | 21 nM | CCOc1cc(-c2cc(NCCc3ccc(OC(F)(F)F)cc3OC)ncn2)sc1C(=O)O [Example 210, 3-Ethoxy-5-{6-[2-(2-methoxy-4-trifluoromethoxy-phenyl)-ethylamino]-pyrimidin-4-yl}-thiophene-2-carboxylic acid] |
| 106 nM | 126 nM | 148 nM | 170 nM | CCOc1cc(C(F)(F)F)ccc1CCNc1cc(-c2ccc(C(=O)O)c(OCC)c2)ncn1 [Example 211, 2-Ethoxy-4-{6-[2-(2-ethoxy-4-trifluoromethyl-phenyl)-ethylamino]-pyrimidin-4-yl}-benzoic acid] |
| 26 nM | 50 nM | 62 nM | 93 nM | CCOc1cc(C(F)(F)F)ccc1CCNc1cc(-c2ccc(C(=O)O)c(SC)c2)ncn1 [Example 212, 4-{6-[2-(2-Ethoxy-4-trifluoromethyl-phenyl)-ethylamino]-pyrimidin-4-yl}-2-methylsulfanyl-benzoic acid] |
| 71 nM | 217 nM | 184 nM | 300 nM | CCCc1cc(-c2cc(NCCc3ccc(C(F)(F)F)cc3OCC)ncn2)ccc1C(=O)O [Example 213, 4-{6-[2-(2-Ethoxy-4-trifluoromethyl-phenyl)-ethylamino]-pyrimidin-4-yl}-2-propyl-benzoic acid] |
| 10 nM | 3 nM | 12 nM | 8 nM | CCOc1cc(C(F)(F)F)ccc1CCNc1cc(-c2cc(OCC)c(C(=O)O)s2)ncn1 [Example 215, 3-Ethoxy-5-{6-[2-(2-ethoxy-4-trifluoromethyl-phenyl)-ethylamino]-pyrimidin-4-yl}-thiophene-2-carboxylic acid] |
| 21 nM | 17 nM | 23 nM | 67 nM | CNc1cc(-c2cc(NCCc3c(F)cc(Br)cc3F)ncn2)ccc1C(N)=O [Example 216, 4-{6-[2-(4-Bromo-2,6-difluoro-phenyl)-ethylamino]-pyrimidin-4-yl}-2-methylamino-benzamide] |
| 20 nM | 29 nM | 134 nM | 79 nM | CCNc1cc(-c2cc(NCCc3c(F)cc(Br)cc3F)ncn2)ccc1C(N)=O [Example 217, 4-{6-[2-(4-Bromo-2,6-difluoro-phenyl)-ethylamino]-pyrimidin-4-yl}-2-ethylamino-benzamide] |
| 302 nM | 96 nM | 332 nM | 42 nM | CCOc1cc(-c2cc(NCCc3ccc(C(F)(F)F)cc3OC(F)F)ncn2)sc1C(=O)O [Example 219, 5-{6-[2-(2-Difluoromethoxy-4-trifluoromethyl-phenyl)-ethylamino]-pyrimidin-4-yl}-3-ethoxy-thiophene-2-carboxylic acid] |
| 16 nM | 94 nM | 13 nM | 43 nM | CNc1cc(-c2cc(NCCc3c(F)cc(Br)cc3F)ncn2)ccc1C(=O)O [Example 231, 4-{6-[2-(4-Bromo-2,6-difluoro-phenyl)-ethylamino]-pyrimidin-4-yl}-2-methylamino-benzoic acid] |
| 77 nM | 49 nM | 93 nM | 23 nM | CCOc1cc(-c2cc(NCCc3c(F)cc(Br)cc3F)ncn2)ccc1-c1noc(=O)[nH]1 [Example 234, 3-(4-{6-[2-(4-Bromo-2,6-difluoro-phenyl)-ethylamino]-pyrimidin-4-yl}-2-ethoxy-phenyl)-[1,2,4]oxadiazol-5(4H)-one] |
| 43 nM | 89 nM | 203 nM | 149 nM | O=c1[nH]c(-c2ccc(-c3cc(NCCc4c(F)cc(Br)cc4F)ncn3)cc2)no1 [Example 235, 3-(4-{6-[2-(4-Bromo-2,6-difluoro-phenyl)-ethylamino]-pyrimidin-4-yl}-phenyl)-[1,2,4]oxadiazol-5(4H)-one] |
| 127 nM | 72 nM | 511 nM | 405 nM | CCOc1cc(-c2cc(NCCc3c(F)cc(Br)cc3F)ncn2)ccc1NC=O [Example 240, N-(4-{6-[2-(4-Bromo-2,6-difluoro-phenyl)-ethylamino]-pyrimidin-4-yl}-2-ethoxy-phenyl)-formamide] |
| 364 nM | 251 nM | 1130 nM | 280 nM | CC(C)Cc1cc(-c2cc(NCCc3c(F)cc(Br)cc3F)ncn2)ccc1CC(=O)O [Example 244, (4-{6-[2-(4-Bromo-2,6-difluoro-phenyl)-ethylamino]-pyrimidin-4-yl}-2-isobutyl-phenyl)-acetic acid] |
| 392 nM | 307 nM | 4630 nM | 6720 nM | CCc1cc(-c2cc(NCCc3c(F)cc(Br)cc3F)ncn2)ccc1C(=O)OC [Example 245, 4-{6-[2-(4-Bromo-2,6-difluoro-phenyl)-ethylamino]-pyrimidin-4-yl}-2-ethyl-benzoic acid methyl ester] |

| Structure (SMILES) | IC50 [1] | IC50 [2] | IC50 [3] | IC50 [4] |
| --- | --- | --- | --- | --- |
| COc1cc(C(F)F)c(F)cc1CCNc1cc(-c2ccc(C(=O)O)c(OC3CCC3)c2)ncn1 [Example 184, 2-Cyclobutoxy-4-{6-[2-(4-difluoromethyl-5-fluoro-2-methoxy-phenyl)-ethylamino]pyrimidin-4-yl}-benzoic acid] | 127 nM | 140 nM | 630 nM | 250 nM |
| CC(C)COc1cc(-c2cc(NCCc3c(F)cc(Br)cc3F)ncn2)ccc1C(=O)O [Example 237, 4-{6-[2-(4-Bromo-2,6-difluoro-phenyl)-ethylamino]-pyrimidin-4-yl}-2-isobutoxy-benzoic acid] | 72 nM | 419 nM | 128 nM | 668 nM |
